Measurements taken from publication PMC6268972, “Antiproliferative, Antimicrobial and Apoptosis Inducing Effects of Compounds Isolated from Inula viscosa” (Molecules, 2012).
Converted amounts (≈) assume the structure as drawn. Counter-ions that a name gives are not always drawn.

How the values were obtained:
Bacillus cereus [1] = settings: cited from earlier work; for MIC against Bacillus cereus: previous studies ref 31
Hep-2 cells = experiment: MTT antiproliferative activity assay, Hep-2; format: cell-based; settings: Homo sapiens, HEp-2; MTT, 48 h treatment, average of three replicates; read-out: IC50 Hep-2
Description: (§1) Hep-2 (larynx carcinoma, ATCC: CCL-23), MCF-7 (breast epithelial adenocarcinoma, ATCC: HTB-22), and Vero (African green monkey kidney, ATCC: CCL-81) cell lines were kindly provided by Dr. Mona Hassuneh (Department of Biological Sciences, University of Jordan). Cells were grown in Minimum Essential Medium Eagle (Gibco, Paisley UK) supplemented with 10% heat inactivated fetal bovine serum (Gibco, Paisley UK), 29 μg/mL L-glutamine, and 40 μg/mL gentamicin. Cells were incubated in a humidified atmosphere of 5% CO2 at 37 °C.
(§2) The antiproliferative activity of Inula viscosa compounds was measured using the MTT (3-(4,5-dimethylthiazol-2-yl)-2,5-diphenyltetrazolium bromide) assay (Promega, Madison, WI, USA). The assay detects the reduction of MTT by mitochondrial dehydrogenase to blue formazan product, which reflects the normal function of mitochondria and cell viability. Exponentially growing cells were washed and seeded at 17,000 cells/well for Hep-2 cell line and 11,000 cells/ well for MCF-7 cell line (in 200 μL of growth medium) in 96 well microplates (Nunc, Roskilde, Denmark). After 24 h incubation, a partial monolayer was formed then the media was removed and 200 μL of the medium containing the compound (initially dissolved in DMSO) were added and re-incubated for 48 h. Then 100 μL of the medium were aspirated and 15 μL of the MTT solution were added to the remaining medium (100 μL) in each well. After 4 h contact with the MTT solution, blue crystals were formed. One hundred μL of the stop solution were added and incubated further for 1 h.
(§3) Reduced MTT was assayed at 550 nm using a microplate reader (Biotek, Winooski, VT, USA). Control groups received the same amount of DMSO (0.1%).Untreated cells were used as a negative control while, cells treated with vincristine sulfate were used as a positive control. Eight concentrations (150, 100, 50, 20, 10, 5, 2, and 1 μg/mL) were prepared from each compound and tested against the three cell lines. IC50 values were calculated as the concentrations that show 50% inhibition of proliferation on any tested cell line. Stock solutions of the compounds were dissolved in (DMSO) then diluted with the medium and sterilized using 0.2 μm membrane filters. The toxicity of DMSO was determined and the final dilution of compounds used for treating the cells contained not more than 0.1% (non toxic concentration) DMSO. IC50 values were reported as the average of three replicates. The antiproliferative effect of the tested compounds was determined by comparing the optical density of the treated cells against the optical density of the control (cells treated with media containing 0.1% DMSO).

Bacillus cereus [2] = experiment: Microtiter plate dilution MIC, B. cereus; format: cell-based; settings: Bacillus cereus; Toxigenic strain TS, 24 h, 100% inhibition; read-out: Minimum inhibitory concentration (MIC) B.c
Description: (§4) The microbial strains used in this study were Escherichia coli (ATCC 10798), Salmonella typhimurium (ATCC14028), Methicillin resistant Staphylococcus aureus (MRSA, Clinical isolate), Bacillus cereus (Toxigenic strain TS), and Candida albicans (ATCC 90028). Bacterial strains were stocked onto nutrient agar slant at 4 °C, and Candida albicans was stocked onto malt agar slant at 4 °C.
(§5) The microtiter plate dilution method was used to determine the MIC (minimum inhibitory concentration) of compounds under study. Sterile 96-well microplates (Nunc) were used for the assay. Stock compounds were dissolved in DMSO so that the final concentrations in micro wells were less than 1% DMSO and solvent controls were run at these concentrations. Positive controls of penicillin G and tetracycline (Oxoid, Hampshire, UK) were prepared at the following concentrations 2, 4, 8, 16, 31, 62.5, 125, and 250 μg/mL. 1% DMSO was used as a solvent control. Compounds were diluted to twice the desired initial test concentration (250 µg/mL) with Muller Hinton broth (MHB) (Oxoid). All wells, except the first were filled with MHB (50 μL). Compounds (100 μL) were added to the first well and serial two-fold dilutions were made down to the desired minimum concentration (2 μg/mL). An over-night culture of bacteria suspended in MHB was adjusted to turbidity equal to 0.5 McFarland standard. The plates were inoculated with bacterial suspension (50 μL/well) and incubated at 37 °C for 24 h. Then the turbidity was measured using micro-plate reader (Biotek) at 620 nm wavelength. The same procedure was used to determine the antifungal activity of compounds against Candida albicans. The medium used was malt extract broth. The yeast cells were suspended in 0.85% saline, with an optical density equivalent to 0.5 McFarland standard, and diluted 1:100 in malt extract broth to obtain the working concentration. After 24 h incubation with each compound, the turbidity was measured at 530 nm wavelength using a spectrophotometer (Biotek). Percentage inhibition for tested microorganisms was calculated using the following formula:
(§6) MIC was determined as the lowest concentration of the compound that causes complete inhibition (100%) of each microorganism.

[3] = system: Methicillin resistant Staphylococcus aureus (MRSA); experiment: Microtiter plate dilution MIC, MRSA; format: cell-based; settings: Staphylococcus aureus, MRSA; clinical isolate, 24 h, 100% inhibition; read-out: Minimum inhibitory concentration (MIC) MRSA
Description: as §4, §5, §6

Escherichia coli = experiment: Microtiter plate dilution MIC, E. coli; format: cell-based; settings: Escherichia coli, ATCC10798; ATCC 10798, 24 h, 100% inhibition; read-out: Minimum inhibitory concentration (MIC) E.c
Description: as §4, §5, §6

Salmonella typhimurium = experiment: Microtiter plate dilution MIC, S. typhimurium; format: cell-based; settings: Salmonella enterica, ATCC 14028 / TYPHIMURIUM; ATCC14028, 24 h, 100% inhibition; read-out: Minimum inhibitory concentration (MIC) S.t
Description: as §4, §5, §6

Candida albicans = experiment: Microtiter plate dilution MIC, C. albicans; format: cell-based; settings: Candida albicans, ATCC90028; ATCC 90028, malt extract broth, 24 h, 100% inhibition; read-out: Minimum inhibitory concentration (MIC) C.a
Description: as §4, §5, §6

MCF-7 cells [4] = experiment: Scanning electron microscopy of MCF-7 cells; format: cell-based, human; settings: 15 µg/mL compound (vincristin sulfate 40 nM), 48 h
Description: MCF-7 cells were cultured in complete DMEM containing either 15 µg/mL of 3-O-methylquercetin or 3,3′-di-O-methylquercetin and incubated for 48 h in humidified CO2 incubator. Negative control cells were incubated with complete DMEM and positive control cells received complete DMEM containing 40 nM vincristin sulfate. Treated cells were fixed with 3% glutaraldehyde for 1.5 h followed by osmium tetroxide (2% in PBS) for 1 h. After fixation, cells were washed in PBS and sequentially dehydrated using 30%, 70%, and 100% ethanol. Fixed cells were attached to a metal stubs and sputter coated with platinum by using Emitech K550X coating unit (Qourum Technology, West Sussex, UK). The coated specimens were viewed using Inspect F50/FEG scanning electron microscope (FEI, Eindhoven, The Netherlands) at accelerating voltage of 2–5 kV. Bacillus cereus cells treated with 3,3′-di-O-methylquercetin for 24 h were collected by centrifugation and washed with sodium phosphate buffer. Following that, the samples were fixed in 2.5% glutaraldehyde in 0.1 M phosphate buffer, pH 7.3, at 4 °C overnight, and postfixed in 1% osmium tetroxide in the phosphate buffer for 1 h at room temperature. Bacterial cells were dehydrated with sequential ethanol concentrations (30–100%) and coated for the observations under scanning electron microscope.

Vero cells = experiment: MTT antiproliferative activity assay, Vero; format: cell-based, African green monkey; settings: Chlorocebus sabaeus, Vero; MTT, 48 h treatment, average of three replicates; read-out: IC50 Vero
Description: as §1, §2, §3

MCF-7 cells [5] = experiment: MTT antiproliferative activity assay, MCF-7; format: cell-based, human; settings: Homo sapiens, MCF7; MTT, 48 h treatment, average of three replicates; read-out: IC50 MCF-7
Description: as §1, §2, §3

MCF-7 cells [6] = experiment: TUNEL colorimetric apoptosis assay; format: cell-based, human; settings: 15 µg/mL, 28 h, compared with untreated cells
Description: Apoptosis was detected using terminal deoxynucleotidyl transferase (TdT) mediated-16-deoxyuridine triphosphate (dUTP) Nick-End Labelling (TUNEL) system (Promega, Madison, WI, USA). MCF-7 cells cultured in 24 well plates were treated with 15 µg/mL of either 3-O-methylquercetin or 3,3′-di-O-methylquercetin for 28 h. The assay was conducted according to the manufacturer's instructions. Briefly, treated cells were fixed using 10% formalin followed by washing with phosphate buffer saline (PBS). Cells were then permeabilized using 0.2% triton X-100. Biotinylated dUTP in rTdT reaction mixture was added to label the fragmented DNA at 37 °C for one hour, followed by blocking endogenous peroxidases using 0.3% hydrogen peroxide. Streptavidin HRP (1:500 in PBS) was added and incubated at room temperature for 30 min. Finally, hydrogen peroxide and chromagen diaminobenzidine were used to visualize nuclei with fragmented DNAs under the light microscope (Novex, Arnhem, Holland). Cells treated with 40 nM vincristine sulfate were used as a positive control while untreated cells were used as a negative control.

Molecule | IC50 (Hep-2 cells) [µg/mL] | Cytomorphological alterations (scanning electron microscopy) (MCF-7 cells [4]) | IC50 (Vero cells) [µg/mL] | IC50 (MCF-7 cells [5]) [µg/mL] | MIC against Bacillus cereus (Bacillus cereus [1]) [µg/mL] | further results
Quercetin-3-O-glycoside | – | – | – | – | – | Inhibition of Bacillus cereus (concentration) (Bacillus cereus [1]; previous studies ref 32): 50 µg/mL
COc1c(-c2ccc(O)c(O)c2)oc2cc(O)cc(O)c2c1=O [3-O-Methylquercetin] | 26.1 ± 2.18 (≈ 82.6 µM) | cell shrinkage, membrane blebbing, loss of contact with neighboring cells, and formation of apoptotic bodies | > 150 | 11.2 ± 1.93 (≈ 35.5 µM) | – | MIC (Bacillus cereus [2]): 125 µg/mL (≈ 395 µM); MIC [3]: > 250 µg/mL; MIC (Escherichia coli): > 250 µg/mL; MIC (Salmonella typhimurium): 125 µg/mL (≈ 395 µM); MIC (Candida albicans): 250 µg/mL (≈ 790 µM); Apoptosis induction (DNA fragmentation, TUNEL) (MCF-7 cells [6]): increase in the number of apoptotic cells with fragmented DNA
CC[C@]1(O)C[C@H]2CN(CCc3c([nH]c4ccccc34)[C@@](C(=O)OC)(c3cc4c(cc3OC)N(C=O)[C@H]3[C@@](O)(C(=O)OC)[C@H](OC(C)=O)[C@]5(CC)C=CCN6CC[C@]43[C@@H]65)C2)C1 [Vincristine sulfate, reference compound] | > 90 | morphological changes similar to those observed in cells treated with either 3-O-methylquercetin or 3,3′-di-O-methylquercetin | > 90 | 10 ± 1.34 | – | –
O=c1c(O[C@H]2OC[C@@H](O)[C@@H](O)[C@@H]2O)c(-c2ccc(O)c(O)c2)oc2cc(O)cc(O)c12 [quercetin-3-O-arabinoside] | – | – | – | – | 350 (≈ 806 µM) | –
O=c1c(O)c(-c2ccc(O)c(O)c2)oc2cc(O)cc(O)c12 [quercetin] | – | – | – | – | 350 (≈ 1160 µM) | –
